Activity calls are given as the source filed them. The rule behind the calls is not given here. Some results are limits rather than exact numbers.

This assay relates to AML12 mouse hepatocytes, cytotoxicity. The assay is described as follows: cytotoxicity in AML12 hepatocytes, SAR follow-up, cytotoxicity control, cell-based (AID 504443).
With `CCOc1cc(CCNC(=O)COc2cc(=O)n(C)c3ccccc23)ccc1OC`, the IC50 was > 10 µM (inactive).
The same measure for `CCOc1cc(CCNC(=O)c2cc3sccc3[nH]2)ccc1OC`: > 10 µM (inactive).
The same measure for `CCOc1ccc(CCNC(=O)CCc2nnc3ccc(N4CCCC4)nn23)cc1OCC`: > 10 µM (inactive).
The same measure for `COc1ccc(CCNC(=O)c2cc3sccc3n2C)cc1OC`: > 10 µM (inactive); for `CCOc1ccc(CCNC(=O)CCC(=O)N2CCSc3ccccc32)cc1OCC`: > 10 µM (inactive); for `CCOc1ccc(CCNC(=O)c2cc3ccsc3n2CC)cc1OC`: > 10 µM (inactive).
Regarding `COc1ccc(CCNC(=O)c2cc(-c3ccccc3)c(N3CCOCC3)s2)c(OC)c1OC`, the IC50 is > 10 µM (inactive).
The same measure for `CCn1c(C(=O)NCc2cc(OC)c(OC)c(OC)c2)cc2sccc21`: > 10 µM (inactive); for `COc1ccc(CNC(=O)CSc2cc(=O)n(C)c3ccccc23)cc1OC`: > 10 µM (inactive); for `CCOc1ccc(CCNC(=O)CCC(=O)N2CCOc3ccccc32)cc1OCC`: > 10 µM (inactive).
For `CCOc1ccc(CCNC(=O)CSc2cc(=O)n(C)c3ccccc23)cc1OC` the value was > 10 µM (inactive).
Regarding `CCOc1ccc(CCNC(=O)c2nnc(Cc3ccc(F)cc3)o2)cc1OCC`, the IC50 is > 10 µM (inactive).
For `COc1ccc(CCNC(=O)COC(=O)c2cc(OC)c(OC)cc2OC)cc1OC` the value was > 10 µM (inactive); for `CCn1c(C(=O)NCCc2ccc(OC)c(OC)c2)cc2sc(Cl)cc21`, > 10 µM (inactive); for `CCn1c(C(=O)Nc2ccc3c(c2)OCO3)cc2ccsc21`, > 10 µM (inactive).
The same measure for `CCOc1ccc(CCNC(=O)CSc2cc(=O)n(CC)c3ccccc23)cc1OCC`: > 10 µM (inactive); for `Cn1c(C(=O)Nc2ccc3c(c2)OCO3)cc2ccsc21`: > 10 µM (inactive).
The same measure for `COc1ccc(CCNC(=O)c2cc3ccccc3n2C)cc1OC`: > 10 µM (inactive); for `CCn1c(C(=O)NCc2ccc3c(c2)OCO3)cc2sccc21`: > 10 µM (inactive); for `CCOc1ccc(CCNC(=O)Cn2nc(C)c3c(C)n(-c4ccccc4)nc3c2=O)cc1OCC`: > 10 µM (inactive).
For `CCn1c(C(=O)NCc2ccc(OC)c(OC)c2)cc2ccsc21`, the IC50 was > 10 µM (inactive).
The same measure for `CCOc1ccc(CCNC(=O)c2cc3sccc3[nH]2)cc1OCC`: > 10 µM (inactive); for `CCOc1ccc(CCNC(=O)CCc2nc(-c3ccc(OC)cc3)no2)cc1OCC`: > 10 µM (inactive); for `CCOc1ccc(CCNC(=O)c2cc3sccc3n2CC)cc1OC`: > 10 µM (inactive).
As to `CCOc1ccc(CCNC(=O)c2cc3ccsc3n2C)cc1OC`, the IC50 is > 10 µM (inactive).
The same measure for `COc1ccc(CNC(=O)c2cc(-c3ccccc3)c(N3CCOCC3)s2)cc1OC`: > 10 µM (inactive).
For `COc1ccc(CCNC(=O)c2cc3sc(Cl)cc3n2C)cc1OC` the value was > 10 µM (inactive); for `CCOc1ccc(CCNC(=O)CN2C(=O)c3cccnc3Oc3ccc(C)cc32)cc1OCC`, > 10 µM (inactive).
In the case of `COc1ccc(CCNC(=O)Cn2cccc2C(=O)c2ccccc2C)cc1OC`, the IC50 is > 10 µM (inactive).
In the case of `CCOc1ccc(CCNC(=O)c2cc3sc(Cl)cc3n2C)cc1OCC`, the IC50 is > 10 µM (inactive).
For `COc1cc(CNC(=O)c2cc3ccsc3n2C)cc(OC)c1OC` the value was > 10 µM (inactive); for `Cn1c(=O)cc(SCC(=O)Nc2ccc3c(c2)OCO3)c2ccccc21`, > 10 µM (inactive); for `CCOc1ccc(CCNC(=O)c2ccc(N3CCOCC3)s2)cc1OCC`, > 10 µM (inactive).
For `CCOc1ccc(CCNC(=O)CSc2cc(=O)n(C)c3cc(Cl)ccc23)cc1OCC` the value was > 10 µM (inactive).
For `CCOc1ccc(CCNC(=O)c2cc(-c3ccccc3)c(N3CCOCC3)s2)cc1OC` the value was > 10 µM (inactive); for `CCOc1ccc(CCNC(=O)c2cc(-c3ccccc3)c(N3CCOCC3)s2)cc1OCC`, > 10 µM (inactive).
Consider `CCOc1ccc(CCNC(=O)c2cc3sccc3n2CC)cc1OCC`, for which the IC50 is > 10 µM (inactive).
On to `CCOc1ccc(CCNC(=O)Cn2ncn3nc(-c4ccc(OC)cc4)cc3c2=O)cc1OCC`, for which the IC50 was > 10 µM (inactive).
The same measure for `CCOc1ccc(CCNC(=O)c2cc3ccsc3n2C)cc1OCC`: > 10 µM (inactive).
The same measure for `CCOc1ccc(CCNC(=O)c2cc3ccsc3n2CC)cc1OCC`: > 10 µM (inactive); for `Cn1c(=O)cc(SCC(=O)NCc2ccc3c(c2)OCO3)c2ccccc21`: > 10 µM (inactive); for `CCOc1ccc(CCNC(=O)CCC(=O)N2CCOc3ccc(C)cc32)cc1OCC`: > 10 µM (inactive).
The same measure for `CCOc1ccc(CCNC(=O)CCc2nnc3ccc(N4CCCCC4)nn23)cc1OCC`: > 10 µM (inactive); for `CCOc1cc(CCNC(=O)c2cc(-c3ccccc3)c(N3CCOCC3)s2)ccc1OC`: > 10 µM (inactive); for `CCOc1ccc(CCNC(=O)COC(=O)c2ccc(OC)c(OC)c2OC)cc1OCC`: > 10 µM (inactive).
As for `O=C(NCCc1ccc2c(c1)OCO2)c1ccc(N2CCOCC2)s1`, the IC50 was > 10 µM (inactive).
For `CCOc1ccc(CCNC(=O)c2cc3sccc3n2C)cc1OCC` the value was > 10 µM (inactive); for `CCn1c(C(=O)Nc2ccc(OC)c(OC)c2)cc2ccsc21`, > 10 µM (inactive).
In the case of `CCOc1cc(CCNC(=O)c2cc3ccccc3n2C)ccc1OC`, the IC50 is > 10 µM (inactive).
For `COc1cc(CNC(=O)CSc2cc(=O)n(C)c3ccccc23)cc(OC)c1OC` the value was > 10 µM (inactive).
The same measure for `CCOc1cc(CCNC(=O)c2cc3ccsc3n2C)ccc1OC`: > 10 µM (inactive); for `CCOc1ccc(CCNC(=O)c2cc3ccccc3n2C)cc1OC`: > 10 µM (inactive).
For `CCn1c(C(=O)NCc2cc(OC)c(OC)c(OC)c2)cc2ccsc21` the value was > 10 µM (inactive); for `COc1ccc(CNC(=O)c2cc3ccsc3n2C)cc1OC`, > 10 µM (inactive); for `CCOc1ccc(CCNC(=O)COC(=O)c2cc(OC)c(OC)c(OC)c2)cc1OCC`, > 10 µM (inactive).
On to `CCOc1ccc(CCNC(=O)Cn2cccc2C(=O)c2ccccc2)cc1OCC`, for which the IC50 was > 10 µM (inactive).
For `Cn1c(C(=O)NCc2ccc3c(c2)OCO3)cc2ccsc21` the value was > 10 µM (inactive).
For `CCOc1cc(CCNC(=O)CSc2cc(=O)n(C)c3ccccc23)ccc1OC` the value was > 10 µM (inactive); for `CCOc1cc(CCNC(=O)c2cc3sccc3n2CC)ccc1OC`, > 10 µM (inactive).
The same measure for `O=C(NCCc1ccc2c(c1)OCO2)c1cc2sccc2[nH]1`: > 10 µM (inactive); for `CCOc1ccc(CCNC(=O)CN2CCN(Cc3ccccc3C)C2=O)cc1OCC`: > 10 µM (inactive).
As to `CCn1c(C(=O)Nc2ccc3c(c2)OCO3)cc2sccc21`, the IC50 is > 10 µM (inactive).
For `CCOc1ccc(CCNC(=O)CSc2cc(=O)n(C)c3ccccc23)cc1OCC` the value was > 10 µM (inactive); for `COc1ccc(CCNC(=O)CSc2cc(=O)n(C)c3ccccc23)cc1OC`, > 10 µM (inactive).
For `CCOc1ccc(CCNC(=O)COc2cc(=O)n(C)c3ccccc23)cc1OCC` the value was > 10 µM (inactive); for `COc1ccc(NC(=O)c2cc3ccsc3n2C)cc1OC`, > 10 µM (inactive); for `CCOc1cc(CCNC(=O)c2ccc(N3CCOCC3)s2)ccc1OC`, > 10 µM (inactive).
Consider `O=C(NCCc1ccc2c(c1)OCO2)c1cc(-c2ccccc2)c(N2CCOCC2)s1`, for which the IC50 is > 10 µM (inactive).
As to `CCn1c(C(=O)Nc2ccc(OC)c(OC)c2)cc2sccc21`, the IC50 is > 10 µM (inactive).
For `COc1ccc(CCNC(=O)c2cc(-c3ccccc3)c(N3CCOCC3)s2)cc1OC` the value was > 10 µM (inactive); for `CCOc1ccc(CCNC(=O)COC(=O)c2cc(OC)cc(OC)c2)cc1OCC`, > 10 µM (inactive); for `Cn1c(=O)cc(SCC(=O)NCCc2ccc3c(c2)OCO3)c2ccccc21`, > 10 µM (inactive).
`CCOc1ccc(CCNC(=O)C2CC=CCC2C(=O)OC(C)C)cc1OCC` (stereo not drawn): the IC50 is > 10 µM (inactive).
Consider `Cn1c(C(=O)NCCc2ccc3c(c2)OCO3)cc2ccccc21`, for which the IC50 is > 10 µM (inactive).
The same measure for `COc1ccc(CNC(=O)c2ccc(N3CCOCC3)s2)cc1OC`: > 10 µM (inactive); for `CCOc1ccc(CCNC(=O)CCOc2cc(C)ccc2C)cc1OCC`: > 10 µM (inactive); for `CCOc1ccc(CCNC(=O)Cn2cccc2C(=O)c2ccccc2C)cc1OCC`: > 10 µM (inactive).
The same measure for `CCn1c(C(=O)NCCc2ccc(OC)c(OC)c2)cc2ccsc21`: > 10 µM (inactive).

A word on the IC50: it is the concentration at which inhibition is half-maximal.

Values taken from PubChem BioAssay AID504443 (Sanford-Burnham Center for Chemical Genomics, 2011).
